The values below come from patent publication US20210347823A1, “METHODS OF PHYSICOCHEMICAL-GUIDED PEPTIDE DESIGN AND NOVEL PEPTIDES DERIVED THEREFROM” (Massachusetts Institute of Technology, priority 2018, published 2021).

One data set relates to human red blood cells. The experiment in a line: Hemolytic activity assay. The note with it: for HC50: concentration needed for 50% hemolysis, human RBC in PBS, room temperature, 1 h, 0.1-100 μmol L^−1; for hemolytic activity: range of concentrations evaluated 0-100 μmol L^−1. It counts as cell-based. The protocol:
FIGS. 6A-6B. Hemolysis and resistance to protease-mediated degradation of engineered peptides. FIG. 6A. Schematic of experimental design and hemolytic assay results of Pol-CP—NH2 and derivatives, where hemolytic activity was evaluated by incubating the peptides (0.1-100 μmol L^−1) with human red blood cells in PBS at room temperature for 1 h. Experiments were performed in triplicate, (*p<0.05). FIG. 6B. Resistance to degradation of Pol-CP—NH2 and analogs exposed to fetal bovine serum (FBS) proteases for 6 h. Experiments were done in triplicate.
Hemolytic Activity Assays. Human erythrocytes were collected and washed three times by centrifugation at 300×g with PBS (pH 7.4). After the last centrifugation, the cells were resuspended in PBS pH 7.4. Aliquots at a concentration of 0.1 to 100 ? mol L^−1 of the peptides were added to the 96-well microplate, where in each well containing 50 ? L of a suspension of erythrocytes to 0.4% in a phosphate saline buffer (10 mmol L^−1 Na2HPO4, 1.8 mmol L^−1 […], pH 7.4, 137 mmol L^−1 NaCl and 2.7 mmol L^−1KCl). After that, the samples were incubated at room temperature for 1 h. Hemolysis was determined by reading absorbance at 405 nm of each well in a bed of plates. 1% SDS in PBS solution was used as positive control (Shalel S. et al., J. Colloid Interface Sci. 252, 66-76 (2002); Love L. J. Cell. Comp. Physiol. 36, 133-148 (1950)) and as negative control was used PBS only. MHC was defined as the maximal non-hemolytic concentration.

The nature of data set [1]: Mouse body weight / toxicity in the skin infection model. It counts as in vivo, mice. The conditions noted are these: for mouse body weight: peptides used at 64 mol L^−1 (so in the source), compared to untreated mice. The protocol:
FIGS. 8A-8D. In vivo activity of Pol-CP—NH2 and its analogs. FIG. 8A. Schematic of the experimental design. Briefly, the back of mice was shaved and an abrasion was generated to damage the stratum corneum and the upper layer of the epidermis. Subsequently, an aliquot of 50 μL containing 5×10^7 CFU of P. aeruginosa in PBS was inoculated over each defined area. One day after the infection, peptides (4 μmol L^−1) were administered to the infected area. Animals were euthanized and the area of scarified skin was excised two and four days post-infection (FIG. 8B) homogenized using a bead beater for 20 minutes (25 Hz), and serially diluted for CFU quantification (****p<0.0001). FIG. 8C. Mouse body weight measurements throughout the experiment normalized by the body weight of non-infected mice. […] FIG. 8D. Longer experiment (four days) using a higher concentration (64 μmol L^−1) of peptides Pol-CP—NH2 and [Lys]'-Pol-CP—NH2 (****p<0.0001).
Scarification Skin Infection Mouse Model. P. aeruginosa strain PA14 was grown to an optical density at 600 nm (OD600) of 1 in tryptic soy broth (TSB) medium. Subsequently cells were washed twice with sterile PBS (pH 7.4, 13,000 rpm for 1 minute), and resuspended to a final concentration of 5×10^7 CFU/50 ? L. To generate skin infection, female CD-1 mice (6 weeks old) were anesthetized with isoflurane and had their backs shaved. A superficial linear skin abrasion was made with a needle in order to damage the stratum corneum and upper-layer of the epidermis. Five minutes after wounding, an aliquot of 50 ? L containing 5×10^7 CFU of bacteria in PBS was inoculated over each defined area containing the scratch with a pipette tip. One day after the infection, peptides were administered to the infected area. Animals were euthanized and the area of scarified skin was excised two and four days post-infection, homogenized using a bead beater for 20 minutes (25 Hz), and serially diluted for CFU quantification. Two independent experiments were performed with 4 mice per group in each condition. Statistical significance was assessed using a one-way ANOVA.

In a further data set the test system is P. aeruginosa. Briefly: MIC against P. aeruginosa (strain not given). The class given is cell-based, Pseudomonas aeruginosa. The source says:
FIGS. 2A-2E. Design, physicochemical features and activity of Pol-CP—NH2 and Ala-scan analogs. FIG. 2A. Theoretical physicochemical properties of interest of the wild type and Ala-scan analogs, where H denotes hydrophobicity, μH is the hydrophobic moment, q represents the net charge and P/N is the ratio of polar/non-polar residues in the sequence. Top to bottom, left to right the sequences correspond to SEQ ID NOs: 1-13. FIG. 2B. Schematic of the in vitro biological activity experimental design. Briefly, 10^4 bacterial cells and serially diluted peptides (0-128 μmol L^−1) were added to a 96-well plate and incubated at 37° C. One day after the exposure, the solution in each well was measured in a microplate reader (600 nm) to check inhibition of bacteria compared to the untreated controls and presented as heat maps of antimicrobial activities (μmol L^−1) against four bacteria strains: E. coli strain BL21, S. aureus strain ATCC12600 and P. aeruginosa strains PA01, and PA14. Assays were performed in triplicates. FIG. 2C. Graph correlating MIC (μmol L^−1) averages vs H and (FIG. 2D) MIC (μmol L^−1) averages vs μH, where dots […] the dashed line show peptides with higher activity compared to the wild type, in which one can observe ranges of optimal activity in determined intervals of H and μH values. FIG. 2E. […]

As for “H-ILGTILGLLKSL-NH2 [WT, ILGTILGLLKSL-NH2, reference compound]”, in the data set on human red blood cells, the HC50 (in general, the concentration giving 50% haemolysis) was determined as 50.0 µmol/L and the “hemolytic activity” value was “hemolytic”. Besides, the mouse body weight result in data set [1] is “did not change significantly”. For the same substance, the “MIC against P. aeruginosa” value against P. aeruginosa (strain not stated) came out at 64 µM.
“H-ILGTILKLLKSL-NH2 [Peptide 16, ILGTILKLLKSL-NH2]”: in the data set on human red blood cells, the HC50 worked out at 12.5 µmol/L and the “hemolytic activity” value is given as “hemolytic”. Further, the “hemolytic activity (concentration at which hemolytic)” value in the data set with human red blood cells (human red blood cells, range evaluated 0-100 μmol L^−1) came out at 12.5 µmol/L. Also, the mouse body weight result in data set [1] is “did not change significantly”. Also, in data set [1] (single dose), the “toxicity to mice” value is on record as “non-toxic”. Besides, the “activity against P. aeruginosa” value in the data set with P. aeruginosa (in vitro, selection of peptides for the mouse model) was “high activity”.
